# Experimental data: patent publication US20250136578A1 (Kolm Therapeutics Inc., priority 2023, published 2025)
# Like-named read-outs stand apart in the source and are kept apart here.
# What was measured:
# [1] = biological target: AR / CBP ternary complex (Homo sapiens, UniProt P10275+Q92793); experiment: Ternary complex formation assay (sandwich ELISA, AR capture, CBP antibody detection) in VCaP cell lysates; type: cell-based
# Method in brief: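 VCaP cells in 5% charcoal-stripped FBS were cultured ≥3 days and then given bifunctional compound for 1.5 h. Lysates went onto AR-antibody-coated plates. Bound CBP (or p300) was detected with a rabbit antibody plus HRP anti-rabbit, using QuantaRed chemifluorescence (ex 570/em 585) read immediately, at 5 min and at 15 min.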
# [2] = test system: VCaP cells; experiment: VCaP growth inhibition assay (CTG); type: cell-based; conditions: Homo sapiens, 216 h, 30 pM R1881, 9 days
# Method in brief: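 VCaP cells in phenol red-free DMEM with 5% charcoal-stripped serum were stimulated with 30 pM R1881 (final) and treated with compound from 100 nM to 10 fM final (1:5 dilutions) for 9 days at 37 °C. Viability was read by CellTiter-Glo luminescence, and IC50 came from 4-parameter logistic fits.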
# [3] = read-out: Average Ternary Complex, treated 1.5 hours, rabbit CBP or p300 antibody detection
# [4] = treated 1.5 hours, rabbit CBP or p300 antibody detection, average, read-out: Average Ternary Complex
# Sequence of AR / CBP ternary complex (P10275 whole entry): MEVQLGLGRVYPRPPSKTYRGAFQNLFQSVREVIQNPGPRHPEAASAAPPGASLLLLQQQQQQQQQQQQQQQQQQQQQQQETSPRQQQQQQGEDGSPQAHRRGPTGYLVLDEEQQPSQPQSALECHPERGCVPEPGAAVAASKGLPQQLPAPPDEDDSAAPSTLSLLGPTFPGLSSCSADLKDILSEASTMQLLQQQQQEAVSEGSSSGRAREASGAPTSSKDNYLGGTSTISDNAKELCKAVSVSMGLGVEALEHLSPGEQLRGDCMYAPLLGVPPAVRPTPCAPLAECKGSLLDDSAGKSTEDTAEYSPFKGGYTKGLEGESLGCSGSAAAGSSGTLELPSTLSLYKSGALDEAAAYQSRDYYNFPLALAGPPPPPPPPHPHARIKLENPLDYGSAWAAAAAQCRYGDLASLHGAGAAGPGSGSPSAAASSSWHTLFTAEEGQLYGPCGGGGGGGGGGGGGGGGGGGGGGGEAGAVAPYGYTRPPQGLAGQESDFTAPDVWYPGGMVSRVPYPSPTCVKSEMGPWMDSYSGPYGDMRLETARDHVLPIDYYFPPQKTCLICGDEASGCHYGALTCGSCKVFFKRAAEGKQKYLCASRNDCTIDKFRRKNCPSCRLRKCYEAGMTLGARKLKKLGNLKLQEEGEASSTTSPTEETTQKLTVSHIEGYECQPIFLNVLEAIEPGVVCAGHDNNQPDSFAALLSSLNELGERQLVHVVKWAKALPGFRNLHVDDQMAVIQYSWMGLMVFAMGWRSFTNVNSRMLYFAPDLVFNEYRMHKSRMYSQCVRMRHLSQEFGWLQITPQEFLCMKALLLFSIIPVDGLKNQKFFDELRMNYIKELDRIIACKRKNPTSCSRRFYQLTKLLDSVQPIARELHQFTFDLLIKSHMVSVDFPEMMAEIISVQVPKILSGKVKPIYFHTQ
# Sequence of AR / CBP ternary complex (Q92793 2-2442): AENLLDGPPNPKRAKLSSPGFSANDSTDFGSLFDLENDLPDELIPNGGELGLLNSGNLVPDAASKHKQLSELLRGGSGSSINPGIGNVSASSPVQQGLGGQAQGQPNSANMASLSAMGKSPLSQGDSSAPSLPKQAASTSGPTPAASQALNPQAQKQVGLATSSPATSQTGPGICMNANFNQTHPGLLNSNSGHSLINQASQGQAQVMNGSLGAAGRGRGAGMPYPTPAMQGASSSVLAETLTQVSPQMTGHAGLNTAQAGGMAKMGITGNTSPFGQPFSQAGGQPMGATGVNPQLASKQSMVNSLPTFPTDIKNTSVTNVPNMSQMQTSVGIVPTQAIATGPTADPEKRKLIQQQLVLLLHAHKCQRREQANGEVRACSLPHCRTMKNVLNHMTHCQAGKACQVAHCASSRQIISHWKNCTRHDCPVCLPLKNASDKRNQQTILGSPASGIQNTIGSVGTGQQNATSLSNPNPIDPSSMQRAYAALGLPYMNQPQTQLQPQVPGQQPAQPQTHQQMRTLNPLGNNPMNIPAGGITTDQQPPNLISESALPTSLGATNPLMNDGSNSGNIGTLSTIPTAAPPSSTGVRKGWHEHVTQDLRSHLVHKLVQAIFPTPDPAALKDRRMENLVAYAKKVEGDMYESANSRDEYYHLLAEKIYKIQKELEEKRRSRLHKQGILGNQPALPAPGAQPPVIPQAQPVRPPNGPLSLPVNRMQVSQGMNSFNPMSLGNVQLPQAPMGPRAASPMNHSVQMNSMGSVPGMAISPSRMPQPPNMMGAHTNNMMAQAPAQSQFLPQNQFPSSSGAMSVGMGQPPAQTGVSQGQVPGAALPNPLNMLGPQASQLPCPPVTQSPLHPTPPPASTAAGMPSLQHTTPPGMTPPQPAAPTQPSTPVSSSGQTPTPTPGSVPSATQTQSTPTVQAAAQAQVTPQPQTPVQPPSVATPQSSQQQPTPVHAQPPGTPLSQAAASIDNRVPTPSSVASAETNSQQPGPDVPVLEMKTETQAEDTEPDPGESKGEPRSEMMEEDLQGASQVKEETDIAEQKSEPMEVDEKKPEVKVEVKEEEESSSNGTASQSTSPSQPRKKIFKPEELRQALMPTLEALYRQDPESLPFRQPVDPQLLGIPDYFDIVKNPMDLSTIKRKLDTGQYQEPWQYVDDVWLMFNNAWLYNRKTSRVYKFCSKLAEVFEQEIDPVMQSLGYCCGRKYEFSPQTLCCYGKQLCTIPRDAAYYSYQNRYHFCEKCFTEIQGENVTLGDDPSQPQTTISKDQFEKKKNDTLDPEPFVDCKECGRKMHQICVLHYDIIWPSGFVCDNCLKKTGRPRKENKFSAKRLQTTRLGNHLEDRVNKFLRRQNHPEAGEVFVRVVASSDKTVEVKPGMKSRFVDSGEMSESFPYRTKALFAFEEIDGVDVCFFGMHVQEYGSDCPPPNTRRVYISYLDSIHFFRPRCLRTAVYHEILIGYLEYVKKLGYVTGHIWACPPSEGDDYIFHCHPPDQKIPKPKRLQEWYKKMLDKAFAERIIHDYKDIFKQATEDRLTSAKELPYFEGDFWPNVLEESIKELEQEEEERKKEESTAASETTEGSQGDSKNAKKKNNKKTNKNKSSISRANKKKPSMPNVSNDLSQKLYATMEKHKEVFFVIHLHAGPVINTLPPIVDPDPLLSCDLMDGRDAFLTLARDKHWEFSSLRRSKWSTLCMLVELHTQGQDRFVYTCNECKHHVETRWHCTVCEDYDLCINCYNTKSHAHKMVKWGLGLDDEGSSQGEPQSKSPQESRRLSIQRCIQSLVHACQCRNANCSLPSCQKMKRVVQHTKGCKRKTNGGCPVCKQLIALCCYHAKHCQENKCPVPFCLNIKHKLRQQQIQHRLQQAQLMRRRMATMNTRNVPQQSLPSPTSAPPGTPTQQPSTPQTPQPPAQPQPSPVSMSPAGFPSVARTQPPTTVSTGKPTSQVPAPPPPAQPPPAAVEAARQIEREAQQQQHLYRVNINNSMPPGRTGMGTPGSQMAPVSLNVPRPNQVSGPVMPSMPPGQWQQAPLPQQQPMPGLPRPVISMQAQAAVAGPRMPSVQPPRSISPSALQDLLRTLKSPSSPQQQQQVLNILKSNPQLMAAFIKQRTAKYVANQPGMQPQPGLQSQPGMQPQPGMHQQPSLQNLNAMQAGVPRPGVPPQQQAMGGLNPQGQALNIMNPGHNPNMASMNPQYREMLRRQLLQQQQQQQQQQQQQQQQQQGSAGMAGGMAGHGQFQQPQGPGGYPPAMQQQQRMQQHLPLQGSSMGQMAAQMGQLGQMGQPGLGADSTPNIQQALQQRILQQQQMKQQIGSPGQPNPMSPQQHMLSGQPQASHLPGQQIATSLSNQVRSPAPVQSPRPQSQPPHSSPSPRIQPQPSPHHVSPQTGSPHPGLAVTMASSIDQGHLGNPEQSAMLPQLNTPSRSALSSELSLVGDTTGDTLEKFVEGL
SMILES,IC50 [2],"EC50 [1, 4]","EC50 [1, 3]"
"CC(=O)N1CCc2c(c(-c3cccc4cc(-c5cnn(CC6CC7(C6)CN(c6ccc(C(=O)N[C@H]8CC[C@H](Oc9ccc(C#N)c(Cl)c9)CC8)nn6)C7)c5)ncc34)nn2C)C1 [Compound 47, 6-[6-[[4-[8-(5-acetyl-1-methyl-6,7-dihydro-4H-pyrazolo[4,3-c]pyridin-3-yl)-3-isoquinolyl]pyrazol-1-yl]methyl]-2-azaspiro[3.3]heptan-2-yl]-N-[4-(3-chloro-4-cyano-phenoxy)cyclohexyl]pyridazine-3-carboxamide]",0.1 to 1 nM,–,1 to 10 nM
CC(=O)N1CCc2c(c(-c3cccc4cc(-c5ccc(CCC6CC7(C6)CN(c6ccc(C(=O)N[C@H]8CC[C@H](Oc9ccc(C#N)c(Cl)c9)CC8)nn6)C7)nc5)ncc34)nn2C2CCOCC2)C1 [Compound 48],≤ 0.1 nM,–,< 1 nM
"CC(=O)N1CCc2c(c(-c3cccc4cc(-c5cnn(CCC6CC7(C6)CN(c6ccc(C(=O)N[C@H]8CC[C@H](Oc9ccc(C#N)c(Cl)c9)CC8)nn6)C7)c5)ncc34)nn2C2CCOCC2)C1 [Compound 49, 6-[6-[2-[4-[8-(5-acetyl-1-tetrahydropyran-4-yl-6,7-dihydro-4H-pyrazolo[4,3-c]pyridin-3-yl)-3-isoquinolyl]pyrazol-1-yl]ethyl]-2-azaspiro[3.3]heptan-2-yl]-N-[4-(3-chloro-4-cyano-phenoxy)cyclohexyl]pyridazine3-carboxamide]",0.1 to 1 nM,< 1 nM,–
"CC(=O)N1CCc2c(c(-c3cccc4cc(-c5cnn(CCC6CC7(C6)CN(c6ccc(C(=O)N[C@H]8CC[C@H](Oc9ccc(C#N)c(Cl)c9)CC8)nn6)C7)c5)ncc34)nn2C)C1 [Compound 50, 6-[6-[2-[4-[8-(5-acetyl-1-methyl-6,7-dihydro-4H-pyrazolo[4,3-c]pyridin-3-yl)-3-isoquinolyl]pyrazol-1-yl]ethyl]-2-azaspiro[3.3]heptan-2-yl]-N-[4-(3-chloro-4-cyano-phenoxy)cyclohexyl]pyridazine-3-carboxamide]",≤ 0.1 nM,< 1 nM,–
"CC(=O)N1CCc2c(c(-c3cccc4cc(-c5ccc(CCC6CC7(C6)CN(c6ccc(C(=O)N[C@H]8CC[C@H](Oc9ccc(C#N)c(Cl)c9)CC8)nn6)C7)nc5)ncc34)nn2C)C1 [Compound 51, 6-[6-[2-[5-[8-(5-acetyl-1-methyl-6,7-dihydro-4H-pyrazolo[4,3-c]pyridin-3-yl)-3-isoquinolyl]-2-pyridyl]ethyl]-2-azaspiro[3.3]heptan-2-yl]-N-[4-(3-chloro-4-cyano-phenoxy)cyclohexyl]pyridazine-3-carboxamide]",0.1 to 1 nM,< 1 nM,–
"Cn1c(=O)n(C)c2cc(N3CCCc4cc(-c5ccc(CCC6CCN(c7ccc(C(=O)N[C@H]8CC[C@H](Oc9ccc(C#N)c(Cl)c9)CC8)nn7)CC6)nc5)c(C(F)F)cc43)ccc21 [Compound 53, N-[4-(3-chloro-4-cyano-phenoxy)cyclohexyl]-6-[4-[2-[5-[7-(difluoromethyl)-1-(1,3-dimethyl-2-oxo-benzimidazol-5-yl)-3,4-dihydro-2H-quinolin-6-yl]-2-pyridyl]ethyl]-1-piperidyl] pyridazine-3-carboxamide]",> 100 nM,–,< 1 nM
"CC(=O)N1CCc2c(c(N3CCCc4cc(C#N)ccc43)nn2C2CCN(C(=O)C3CCN(c4ccc(C(=O)N[C@H]5CC[C@H](Oc6ccc(C#N)c(Cl)c6)CC5)nn4)CC3)CC2)C1 [Compound 61, 6-[4-[4-[5-acetyl-3-(6-cyano-3,4-dihydro-2H-quinolin-1-yl)-6,7-dihydro-4H-pyrazolo[4,3-c]pyridin-1-yl]piperidine-1-carbonyl]-1-piperidyl]-N-[4-(3-chloro-4-cyano-phenoxy)cyclohexyl]pyridazine-3-carboxamide]",≤ 0.1 nM,< 1 nM,–
"CC(=O)N1CCc2c(c(N3CCCc4ccc(C(F)F)cc43)nn2C2CCN(C(=O)C3CCN(c4ccc(C(=O)N[C@H]5CC[C@H](Oc6ccc(C#N)c(Cl)c6)CC5)nn4)CC3)CC2)C1 [Compound 62, 6-[4-[4-[5-acetyl-3-[7-(difluoromethyl)-3,4-dihydro-2H-quinolin-1-yl]-6,7-dihydro-4H-pyrazolo[4,3-c]pyridin-1-yl]piperidine-1-carbonyl]-1-piperidyl]-N-[4-(3-chloro-4-cyano-phenoxy)cyclohexyl]pyridazine-3-carboxamide]",≤ 0.1 nM,< 1 nM,–
"CC(=O)N1CCc2c(c(-c3cccc4cc(-c5cnn(CCOC6CC7(C6)CN(c6ccc(C(=O)N[C@H]8CC[C@H](Oc9ccc(C#N)c(Cl)c9)CC8)nn6)C7)c5)ncc34)nn2C2CCOCC2)C1 [Compound 63, 6-[6-[2-[4-[8-(5-acetyl-1-tetrahydropyran-4-yl-6,7-dihydro-4H-pyrazolo[4,3-c]pyridin-3-yl)-3-isoquinolyl]pyrazol-1-yl]ethoxy]-2-azaspiro[3.3]heptan-2-yl]-N-[4-(3-chloro-4-cyano-phenoxy)cyclohexyl]pyridazine-3-carboxamide]",0.1 to 1 nM,< 1 nM,–
"CC(=O)N1CCc2c(c(-c3cccc4cc(-c5cnn(CCOC6CC7(C6)CN(c6ccc(C(=O)N[C@H]8CC[C@H](Oc9ccc(C#N)c(Cl)c9)CC8)nn6)C7)c5)ncc34)nn2C)C1 [Compound 64, 6-[6-[2-[4-[8-(5-acetyl-1-methyl-6,7-dihydro-4H-pyrazolo[4,3-c]pyridin-3-yl)-3-isoquinolyl]pyrazol-1-yl]ethoxy]-2-azaspiro[3.3]heptan-2-yl]-N-[4-(3-chloro-4-cyano-phenoxy)cyclohexyl]pyridazine-3-carboxamide]",0.1 to 1 nM,1 to 10 nM,–

# Continued, in another order:
IC50 [2],"EC50 [1, 4]",SMILES,"EC50 [1, 3]"
> 100 nM,1 to 10 nM,"Cn1c(=O)n(C)c2cc(-c3cccc4cc(-c5ccc(CCC6CCN(c7ccc(C(=O)N[C@H]8CC[C@H](Oc9ccc(C#N)c(Cl)c9)CC8)nn7)CC6)nc5)ncc34)ccc21 [Compound 52, N-[4-(3-chloro-4-cyano-phenoxy)cyclohexyl]-6-[4-[2-[5-[8-(1,3-dimethyl-2-oxo-benzimidazol-5-yl)-3-isoquinolyl]-2-pyridyl]ethyl]-1-piperidyl]pyridazine-3-carboxamide]",–
0.1 to 1 nM,1 to 10 nM,"Cn1c(=O)n(C)c2cc(N3CCCc4cc(-c5ccc(CCC6CCN(c7ccc(C(=O)N[C@H]8CC[C@H](Oc9ccc(C#N)c(Cl)c9)CC8)nn7)CC6)nc5)ncc43)ccc21 [Compound 54, N-[4-(3-chloro-4-cyano-phenoxy)cyclohexyl]-6-[4-[2-[5-[1-(1,3-dimethyl-2-oxo-benzimidazol-5-yl)-3,4-dihydro-2H-1,7-naphthyridin-6-yl]-2-pyridyl]ethyl]-1-piperidyl] pyridazine-3-carboxamide]",–
> 100 nM,< 1 nM,"Cn1c(=O)sc2ccc(-c3cccc4cc(-c5ccc(CCC6CCN(c7ccc(C(=O)N[C@H]8CC[C@H](Oc9ccc(C#N)c(Cl)c9)CC8)nn7)CC6)nc5)ncc34)cc21 [Compound 55, N-[4-(3-chloro-4-cyano-phenoxy)cyclohexyl]-6-[4-[2-[5-[8-(3-methyl-2-oxo-1,3-benzothiazol-5-yl)-3-isoquinolyl]-2-pyridyl]ethyl]-1-piperidyl]pyridazine-3-carboxamide]",–
> 100 nM,1 to 10 nM,"Cn1c(=O)sc2ccc(N3CCCc4cc(-c5ccc(CCC6CCN(c7ccc(C(=O)N[C@H]8CC[C@H](Oc9ccc(C#N)c(Cl)c9)CC8)nn7)CC6)nc5)c(C(F)F)cc43)cc21 [Compound 56, N-[4-(3-chloro-4-cyano-phenoxy)cyclohexyl]-6-[4-[2-[5-[7-(difluoromethyl)-1-(3-methyl-2-oxo-1,3-benzothiazol-5-yl)-3,4-dihydro-2H-quinolin-6-yl]-2-pyridyl]ethyl]-1-piperidyl]pyridazine-3-carboxamide]",–
1 to 100 nM,< 1 nM,"Cn1c(=O)sc2ccc(N3CCCc4cc(-c5ccc(CCC6CCN(c7ccc(C(=O)N[C@H]8CC[C@H](Oc9ccc(C#N)c(Cl)c9)CC8)nn7)CC6)nc5)ncc43)cc21 [Compound 57, N-[4-(3-chloro-4-cyano-phenoxy)cyclohexyl]-6-[4-[2-[5-[1-(3-methyl-2-oxo-1,3-benzothiazol-5-yl)-3,4-dihydro-2H-1,7-naphthyridin-6-yl]-2-pyridyl]ethyl]-1-piperidyl]pyridazine-3-carboxamide]",–
> 100 nM,10 to 100 nM,"CN1C(=O)CCc2cc(-c3cccc4cc(-c5ccc(CCC6CCN(c7ccc(C(=O)N[C@H]8CC[C@H](Oc9ccc(C#N)c(Cl)c9)CC8)nn7)CC6)nc5)ncc34)ccc21 [Compound 58, N-[4-(3-chloro-4-cyano-phenoxy)cyclohexyl]-6-[4-[2-[5-[8-(1-methyl-2-oxo-3,4-dihydroquinolin-6-yl)-3-isoquinolyl]-2-pyridyl]ethyl]-1-piperidyl]pyridazine-3-carboxamide]",–
> 100 nM,> 100 nM,"CN1C(=O)CCc2cc(N3CCCc4cc(-c5ccc(CCC6CCN(c7ccc(C(=O)N[C@H]8CC[C@H](Oc9ccc(C#N)c(Cl)c9)CC8)nn7)CC6)nc5)c(C(F)F)cc43)ccc21 [Compound 59, N-[4-(3-chloro-4-cyano-phenoxy)cyclohexyl]-6-[4-[2-[5-[7-(difluoromethyl)-1-(1-methyl-2-oxo-3,4-dihydroquinolin-6-yl)-3,4-dihydro-2H-quinolin-6-yl]-2-pyridyl]ethyl]-1-piperidyl]pyridazine-3-carboxamide]",–
> 100 nM,> 100 nM,"CN1C(=O)CCc2cc(N3CCCc4cc(-c5ccc(CCC6CCN(c7ccc(C(=O)N[C@H]8CC[C@H](Oc9ccc(C#N)c(Cl)c9)CC8)nn7)CC6)nc5)ncc43)ccc21 [Compound 60, N-[4-(3-chloro-4-cyano-phenoxy)cyclohexyl]-6-[4-[2-[5-[1-(1-methyl-2-oxo-3,4-dihydroquinolin-6-yl)-3,4-dihydro-2H-1,7-naphthyridin-6-yl]-2-pyridyl]ethyl]-1-piperidyl] pyridazine-3-carboxamide]",–
